By EC50 is commonly meant the concentration giving half of the maximal effect. A word on the CC50: it is the concentration that lowers cell viability or growth by half. A low value points to harm at low concentration.

Like-named read-outs stand apart in the source and are kept apart here.

We go through 9 compounds from article PMC7459852, “Identification of 6-(piperazin-1-yl)-1,3,5-triazine as a chemical scaffold with broad anti-schistosomal activities” (Wellcome Open Research, 2020).

For one data set, the system named is S. mansoni schistosomula. Put plainly: Schistosomula screens (Roboworm, phenotype and motility). The conditions noted are these: 72 h; for anti-schistosomula activity (hit on phenotype and motility): 50 µM; for EC50: Schistosoma mansoni. The format is cell-based, Schistosoma mansoni. The procedure:
Anthelmintic activity on the schistosomula stage of S. mansoni was evaluated using Roboworm, an integrated high-throughput, high content image analysis platform originally developed by Paveley et al. and subsequently used by our research group as previously described, [28], [50], [51]. Alternatively, the computer application Worminator can be used to assess motion of microscopic parasites such as the schistosomula stage of S. mansoni. Compounds (as single concentration or two-fold titrations) were prepared for screening in a 384-well plate (PerkinElmer, MA, USA), where solutions (1.6 mM, 0.5 μl) were wet stamped using the Biomek NX ^P liquid handling platform into Basch medium (20 μl). Negative (0.625% DMSO) and positive (Auranofin - AUR - at 10 µM final concentration in 0.625% DMSO) control wells were similarly prepared. Mechanically transformed schistosomula (about 120 parasites in 60 μl of Basch medium) were distributed into each treated well using a WellMate (Thermo Scientific, Loughborough, UK). Schistosomula/compound co-cultures were then incubated at 37°C for 72 h in a humidified atmosphere containing 5% CO 2. At 72 h, parasite/compound co-cultures were resuspended and tissue culture plates were imaged under the same conditions (37°C for 72 h in a humidified atmosphere containing 5% CO 2) using an ImageXpressXL high content imager (Molecular Devices, UK) with subsequent images processed for phenotype and motility as previously reported. Plate analysis returned a phenotype and motility score for each well and any scores below -0.15 and -0.35 (defined threshold anti-schistosomula values for phenotype and motility scores, respectively) defined a condition displaying anti-schistosomula activity. Compound screens were assessed based on the Z´ values (derived from the means and standard deviations of positive and negative controls) and those equal to or above 0.3 for both phenotype and motility were considered successful.
Phenotype and motility scores of each titration were used to generate dose response curves in GraphPad Prism 7.02 based on the corrected average score of the three replicates for each data point.

Data set [1] can be described thus: MTT cytotoxicity assay on HepG2 cells. The class given is cell-based, Human. Particulars: human, HepG2 cells, MTT, 24 h; three dose response titrations (200 - 1 µM). The procedure:
(§1) Compound cytotoxicity on Human Hepatocyte Carcinoma (HepG2) cells (85011430, Sigma Aldrich) was elucidated by the MTT (3-(4,5-dimethylthiazol-2-yl)-2,5-diphenyltetrazolium bromide) tetrazolium reduction assay as previously described, [28], [50]. Briefly, HepG2 cells were seeded at a density of 20,000 per well in 96-well black, clear bottom falcon plate in modified BME medium (50 μl; containing 1% antibiotic/mycotic (Sigma-Aldrich, Gillingham, UK), 1% 200 mM L-glutammine (Gibco, Paisley, UK), 1% MEM non-essential amino acid solution (Gibco, Paisley, UK), and 10% fetal bovine serum (Gibco, Paisley, UK)). HepG2 plates seeded for cytotoxicity screens were treated with compounds 24 h post-seeding. Each compound was tested at 200, 100, 75, 50, 20, 10 and 1 µM; each concentration was assayed in triplicate. Blank wells (no cells), as well as positive (1% v/v Triton X-100, X100, Sigma-Aldrich) and negative (1.25% v/v DMSO or media only) controls, were included in each plate. After addition of compounds, each plate was then incubated for a further 20 h before application of MTT reagent for assessment of compound cytotoxicity (4 h incubation with MTT for a total 24 h cell-drug incubation). The absorbance reading at 570 nm was measured with a POLARstar Omega (BMG Labtech, UK) microtiter plate reader. Dose response curves were generated in GraphPad Prism 7.02 based on the corrected average absorbance of the three replicates for each concentration point.
(Tetrazolium assays rely on reduction of a dye to a coloured formazan, in cell work by metabolically active cells.)

A further data set has as its system S. mansoni miracidia. Kind of data set: Miracidia to sporocyst transformation screens. The class given is cell-based, Schistosoma mansoni. Particulars: 10 µM, 48 h. The procedure: Following hatching of S. mansoni eggs, miracidia were incubated on ice for 15 min and then centrifuged at 700 x g for 5 min at 4°C. The miracidia pellet was then re-suspended in 5 ml of Chernin's balanced salt solution (CBSS), subjected to pelleting and two subsequent washes (all at 700 x g for 5 min at 4°C). Afterwards, the supernatant was carefully removed with a serological pipette and the miracidia-enriched pellet was resuspended with CBSS supplemented with 1 mg/ml each of glucose and trehalose and 500 µl of Penicillin-Streptomycin (containing 10,000 units penicillin and 10 mg streptomycin/ml, P4333, Sigma-Aldrich). In preparation for the screens, CBSS (250 µl) was aliquoted to each well of a 24-well plate followed by addition of each compound in DMSO (1 mM concentration in 1% DMSO) or DMSO alone (1%, negative control). Next, approximately 20-25 miracidia (in 250 µl of CBSS) were aliquoted to each well. […] Both preliminary and secondary screens were performed in duplicate on two separate occasions (two independent biological replicates). Miracidia were incubated for 48 h at 26°C before being evaluated using an Olympus inverted light microscope for morphological and behavioural changes differing from the control wells. Dead, partially transformed and fully transformed miracidia were enumerated in the DMSO control and the assay plates as previously described, [23], [59]. […] Absence of ciliated plates attached to the surface of the parasite and formation of sporocyst tegument defined the so-called “fully transformed” parasites.

Another data set deals with S. mansoni adult worms. Kind of data set: Adult worm screens (WormassayGP2 motility, egg count). The format is cell-based, Schistosoma mansoni. Particulars: 72 h; for adult worm motility and oviposition: 6.25 µM, compared to compound 7; for adult worm egg production / adult worm motility compared to compound 7: 12.5 µM. How it is done: For compound screening, adult worms (three worm pairs/well for compound 7 and the hit compounds of set two; one worm pair/well for the hit compounds of set three) were transferred into wells of a 48-well tissue culture plate containing 1 ml of adult worm media. Adult worms were treated with compounds previously identified as hits at 10 µM on 72 h cultured schistosomula. Worms were dosed with an appropriate volume of 10 mM stock solution of each compound (in DMSO) to have a concentration range of 50 – 6.25 µM (up to 0.5% DMSO, primary screen of compound 7). Secondary screens were performed on the structural analogues of compound 7 (only the schistosomula hits at 10 µM) at a single concentration (12.5 µM) and compared to the same concentration of the parental compound (included in the screen as reference). DMSO (0.5%) and praziquantel (10 µM in 0.5% DMSO) were also included as negative and positive control treatments (both primary and secondary screens). Treated adult worms were incubated for 72 h in a humidified environment at 5% CO 2 at 37°C. Parasite motility after drug treatment was assessed by a digital image processing-based system (WormassayGP2, see Software availability) modified after Wormassay, [56], [57]. Egg production was assessed according to the methodology described by Edwards et al..

In a further data set the test system is HepG2 cells. Kind of data set: MTT cytotoxicity assay on HepG2 cells. The format is cell-based, Human. The conditions noted are these: for cytotoxicity on HepG2 cells (in words): dose response titration. How it is done:
as §1

Data set [2] has as its system Schistosoma mansoni. Also on record: method as in PMID 24037106. Particulars: cited from earlier work.
Data set [3] concerns Schistosoma mansoni. Also on record: method as in PMID 24037106. Particulars: cited from earlier work. This is another data set of the same source.
Where [4] appears, read: dose response titrations (10 - 0.625 µM), read-out: Schistosomula EC50 Motility.
The mark [5] stands for this setting: dose response titrations (10 - 0.625 µM), read-out: Schistosomula EC50 Phenotype.
The mark [6] stands for this setting: average of phenotype and motility metrics, read-out: Schistosomula EC50 Average.

Regarding `c1ccc(Nc2nc(N3CCNCC3)nc(N3CCOCC3)n2)cc1` [Compound 22], the “anti-schistosomula activity (hit on phenotype and motility)” value (“anti-schistosomula activity” for short) in the data set with S. mansoni schistosomula is listed as “active at the highest concentration”. Further, the EC50 stood at 1.64 µM with S. mansoni schistosomula (setting [4]) and 2.09 µM with S. mansoni schistosomula (setting [5]). In addition, in data set [1], the midpoint of cytotoxicity, the CC50 at 24 h, lay at 93.5 µM.
As to `Cc1ccccc1Nc1nc(Nc2ccccc2C)nc(N2CCNCC2)n1` [Compound 13], the effect on miracidia result in the data set on S. mansoni miracidia was “readily killed miracidia”. In addition, the EC50 is 4.76 µM in the data set on S. mansoni schistosomula (setting [6]), 4.82 µM in the data set on S. mansoni schistosomula (setting [4]) and 4.7 µM in the data set with S. mansoni schistosomula (setting [5]). The compound further returned a CC50 at 24 h in data set [1] of 17.9 µM.
`Cc1ccc(Nc2nc(N3CCNCC3)nc(N3CCN(c4ccccc4)CC3)n2)cc1` [Compound 24]: in the data set on S. mansoni miracidia, the effect on miracidia result is given as “readily killed miracidia”. In the data set on S. mansoni adult worms, the “adult worm motility and oviposition” value is on record as “the most potent”; the “adult worm egg production” value is “greater potency than compound 7”; the “adult worm motility compared to compound 7” value is “greater potency than compound 7”. The “anti-schistosomula activity” value in the data set with S. mansoni schistosomula is “active at the highest concentration”. Further, the EC50 with S. mansoni schistosomula (setting [4]) was 1.81 µM. The half-maximal effective concentration (EC50) in the data set with S. mansoni schistosomula (setting [5]) worked out at 1.57 µM. Also, the “cytotoxicity on HepG2 cells (in words)” value in the data set with HepG2 cells is recorded as “showed the highest toxicity”.
As to `Cc1ccc(Nc2nc(C3CCCCC3)nc(N3CCNCC3)n2)cc1` [Compound 23], the effect on miracidia result in the data set with S. mansoni miracidia is reported as “readily killed miracidia”. In the data set with S. mansoni adult worms, the “adult worm motility and oviposition” value was “strong anthelmintic activities”; the “adult worm egg production” value is “greater potency than compound 7”; the “adult worm motility compared to compound 7” value is “greater potency than compound 7”. In the data set on S. mansoni schistosomula, the “anti-schistosomula activity” value was “active at the highest concentration”. Also, in the data set with S. mansoni schistosomula (setting [4]), the EC50 is 2.79 µM. In the data set on S. mansoni schistosomula (setting [5]), the EC50 was 3.06 µM. Besides, the CC50 in the data set on HepG2 cells (MTT, 24 h, three dose response titrations (200 - 1 µM)) is 6.73 µM. Moreover, the “cytotoxicity on HepG2 cells (in words)” value with HepG2 cells is given as “showed the highest toxicity”. For the same compound, the CC50 at 24 h in data set [1] was under 10 µM.
As to `c1ccc(CNc2nc(Nc3ccccc3)nc(N3CCNCC3)n2)cc1` [Compound 12], the effect on miracidia entry in the data set with S. mansoni miracidia is recorded as “readily killed miracidia”. Besides, in the data set with S. mansoni adult worms, the “adult worm egg production” value was “reducing egg production similarly to compound 7”. Moreover, the “adult worm motility compared to compound 7” value in the data set with S. mansoni adult worms is reported as “more potent than the original hit compound”. For the same compound, the EC50 is 4.49 µM in the data set on S. mansoni schistosomula (setting [6]), 4.41 µM in the data set with S. mansoni schistosomula (setting [4]) and 4.57 µM in the data set on S. mansoni schistosomula (setting [5]). Also, the CC50 at 24 h in data set [1] was found to be 11 µM.
For the compound `Cc1ccc(Nc2nc(N3CCNCC3)nc(N3CCOCC3)n2)cc1` [Compound 15], the effect on miracidia result in the data set with S. mansoni miracidia is “all readily killed miracidia except for compounds 15 and 16”. Moreover, the “adult worm egg production” value in the data set with S. mansoni adult worms is “reducing egg production similarly to compound 7”. Moreover, the “adult worm motility compared to compound 7” value with S. mansoni adult worms is reported as “more potent than the original hit compound”. In addition, the figures for the EC50 with S. mansoni schistosomula (setting [6]), in the data set with S. mansoni schistosomula (setting [4]) and with S. mansoni schistosomula (setting [5]) were 1.44 µM, 1.79 µM and 1.09 µM, respectively. The midpoint of cytotoxicity in data set [1], the CC50 at 24 h, lay at 23.9 µM.
On to `CC(=O)Nc1ccc(S(=O)(=O)N2CCN(c3nc(N4CCCCC4)nc(N4CCCCC4)n3)CC2)cc1` [Compound 20], for which, in the data set with S. mansoni miracidia, the effect on miracidia result is reported as “readily killed miracidia”. In the data set on S. mansoni adult worms, the “adult worm motility and oviposition” value is given as “strong anthelmintic activities”; the “adult worm egg production” value is “greater potency than compound 7”; the “adult worm motility compared to compound 7” value is reported as “greater potency than compound 7”. Further, the “anti-schistosomula activity” value in the data set on S. mansoni schistosomula is reported as “active at the highest concentration”. Also, the EC50 in the data set with S. mansoni schistosomula (setting [4]) was determined as 4.93 µM. The EC50 in the data set on S. mansoni schistosomula (setting [5]) was found to be 3.47 µM. Also, the “cytotoxicity on HepG2 cells (in words)” value in the data set on HepG2 cells is “not toxic to this cell line, except for concentrations above 100 µM”. Also, in data set [1], the CC50 at 24 h was over 100 µM.
Turning to `c1ccc(Nc2nc(Nc3ccccc3)nc(N3CCNCC3)n2)cc1` [Compound 8], in the data set on S. mansoni miracidia, the effect on miracidia entry is given as “readily killed miracidia”. Further, in the data set on S. mansoni adult worms, the “adult worm egg production” value is listed as “reducing egg production similarly to compound 7”. In the data set on S. mansoni adult worms, the “adult worm motility compared to compound 7” value is “more potent than the original hit compound”. The results for the EC50 with S. mansoni schistosomula (setting [6]), in the data set with S. mansoni schistosomula (setting [4]) and in the data set on S. mansoni schistosomula (setting [5]) were 4.12 µM, 4.98 µM and 3.27 µM, respectively. In data set [1], this compound came in with a CC50 at 24 h of 14.9 µM.
For the compound `Cc1ccc(NC(=O)c2ccc(CN3CCN(C)CC3)cc2)cc1Nc1nccc(-c2cccnc2)n1` [Imatinib], in the data set with Schistosoma mansoni [2], the “in vivo anti-schistosomal activity” value is on record as “lost in vivo”. The “in vitro anti-schistosomal activity” value with Schistosoma mansoni [3] is “potent in vitro anti-schistosomal activity”.
